Read-outs that look alike come from different tables or passages of the source.
Columns and labels:
hSSTR4 = target: T1, hSSTR4 (Homo sapiens, UniProt P31391); assay: Somatostatin receptor radioligand binding assay (hSSTR4); conditions: CHO-K1 cell membranes; 0.05 nM [125I-Tyr11]-SRIF-14; 60 minutes at 25°C; read-out: hSSTR4 Ki (nM) ± SEM
T1 construct: expressed in transfected cells; host or cells: CHO-K1 (ATCC), pcDNA3.1, G418-selected clonal line; membranes
Procedure: (§1) The affinities of a test compound for the human somatostatin receptors were determined by radioligand binding assays in CHO-K1 cells stably transfected with each of the human somatostatin receptor subtypes, hSSTR1-5. The cDNA coding sequences of hSSTR1 (GenBank accession No. NM_001049.1), hSSTR2 (GenBank accession No. XM_012697.1), hSSTR3 (GenBank accession No. XM_009963.1), hSSTR4 (GenBank accession No. NM_001052.1), and hSSTR5 (GenBank accession No. XM_012565.1) were subcloned into the mammalian expression vector pcDNA3.1 (Life Technologies). Clonal cell lines stably expressing each of the somatostatin receptors were obtained by transfection into CHO-K1 cells (ATCC) and subsequently selected with culture media containing 0.8 mg/mL of G418 (Life Technologies).
(§2) Membranes for in vitro receptor binding assays were obtained by the following procedures. CHO-K1 cells expressing one of the somatostatin receptors were homogenized in ice-cold buffer with 10 mM Tris-HCl, 5 mM EDTA, 3 mM EGTA, 1 mM phenylmethylsuphonyl fluoride, pH 7.6, using Polytron PT10-35GT (Kinematica) at 18,000 rpm for 30 seconds and centrifuged at 500 x g for 10 minutes. The supernatant containing the plasma membranes was centrifuged at 100,000 x g for 30 minutes and the pellet was resuspended in buffer containing 20 mM glycine-glycine, 1 mM MgCl2, 250 mM sucrose, pH 7.2, for storage at -80°C.
(§3) For the hSSTR3 and 4 assays, membranes and various concentrations of test compounds were incubated in 96-well plates for 60 minutes at 25°C with 0.05 nM [^125I-Tyr^11]-SRIF-14 (PerkinElmer Life Science) in 50 mM HEPES, 0.2% BSA, 5 mM MgCl2, 200 KIU/mL trasylol, 0.02 mg/mL bacitracin, and 0.02 mg/mL phenylmethylsuphonyl fluoride, pH 7.5.
(§4) The incubations were terminated by rapid filtration through GF/C glass microfiber filter plates (pre-wet with 0.3% polyethyleneimine and 0.1 % BSA) using a 96-well cell harvester (Brandel). Plates were washed six times with 1 mL/well aliquots of ice-cold buffer containing 50 mM Tris buffer, pH 7.7. Specific binding was defined as the total radioligand bound minus the bound in the presence of 1000 nM SRIF-14.

hDRD2 [1] = target: T2, hDRD2 (Homo sapiens, UniProt P14416); assay: cell-based; design: host or cells: 'Cells expressing hDRD2'; conditions: read-out: hDRD2 %Emax ± SEM
Procedure: (§5) The ability of select compounds according to the present invention to activate hSSTR2 and hDRD2 was determined by the intracellular calcium mobilization assay using FLIPR Calcium 4 assay kit (Molecular Devices).
(§6) Cells expressing hSSTR2 or hDRD2 were plated in 384-well microplates in tissue culture media and incubated for 16-24 hours at 37°C in a humidified atmosphere with 5% CO2. Medium was replaced by loading buffer containing Hank's buffered saline, 20 mM HEPES, 2.5 mM probenecid and Calcium 4 dye, and the plates were incubated at 37°C for 60 minutes.

hSSTR3 = target: T3, hSSTR3 (Homo sapiens, UniProt P32745); assay: Somatostatin receptor radioligand binding assay (hSSTR3); conditions: CHO-K1 cell membranes; 0.05 nM [125I-Tyr11]-SRIF-14; 60 minutes at 25°C; read-out: hSSTR3 Ki (nM) ± SEM
T3 construct: expressed in transfected cells; host or cells: CHO-K1 (ATCC), pcDNA3.1, G418-selected clonal line; membranes
Procedure: as §1, §2, §3, §4

hDRD2 [2] = target: T2, hDRD2; assay: biochemical; type: binding; design: expressed in transfected cells; host or cells: CHO-K1, pcDNA3.1/GS, zeocin-selected clonal line; membranes
hSSTR1 = target: T4, hSSTR1 (Homo sapiens, UniProt P30872); assay: Somatostatin receptor radioligand binding assay (hSSTR1)
T4 construct: expressed in transfected cells; host or cells: CHO-K1 (ATCC), pcDNA3.1, G418-selected clonal line; membranes
Procedure: (§7) The affinities of a test compound for the human somatostatin receptors were determined by radioligand binding assays in CHO-K1 cells stably transfected with each of the human somatostatin receptor subtypes, hSSTR1-5. […] Clonal cell lines stably expressing each of the somatostatin receptors were obtained by transfection into CHO-K1 cells (ATCC) and subsequently selected with culture media containing 0.8 mg/mL of G418 (Life Technologies).
(§8) Membranes for in vitro receptor binding assays were obtained by the following procedures. […] The supernatant containing the plasma membranes was centrifuged at 100,000 x g for 30 minutes and the pellet was resuspended in buffer containing 20 mM glycine-glycine, 1 mM MgCl2, 250 mM sucrose, pH 7.2, for storage at -80°C.
(§9) For the SSTR1, 2 and 5 assays, membranes and various concentrations of test compounds were incubated in 96-well plates for 60 minutes at 25°C with 0.05 nM [^125I-Tyr^11]-SRIF-14 (for hSSTR1; PerkinElmer Life Science), 0.05 nM [^125I-Tyr]-seglitide (for hSSTR2; PerkinElmer Life Science) or 0.05 nM [^125I-Tyr]-[DPhe-cyclo(Cys-Tyr-DTrp-Lys-Val-Cys)-Thr-NH2] (for hSSTR5; PerkinElmer Life Science) in 50 mM HEPES, 0.2% BSA, 0.1 mM MgCl2, pH 7.5.

hSSTR5 = target: T5, hSSTR5 (Homo sapiens, UniProt P35346); assay: Somatostatin receptor radioligand binding assay (hSSTR5); conditions: CHO-K1 cell membranes; 0.05 nM [125I-Tyr]-[DPhe-cyclo(Cys-Tyr-DTrp-Lys-Val-Cys)-Thr-NH2]; 60 minutes at 25°C; read-out: hSSTR5 Ki (nM) ± SEM
T5 construct: expressed in transfected cells; host or cells: CHO-K1 (ATCC), pcDNA3.1, G418-selected clonal line; membranes
Procedure: as §7, §8, §9

hSSTR2 [3] = target: T6, hSSTR2 (Homo sapiens, UniProt P30874); assay: Somatostatin receptor radioligand binding assay (hSSTR2);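 further: radioligand displacement on membranes of CHO-K1 cells stably transfected with human SSTR2, specific binding taken as total minus binding left with 1000 nM SRIF-14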
T6 construct: host or cells: 'Cells expressing hSSTR2'
Procedure: as §7, §8, §9

[4] = test system: pituitary tumor cells of acromegalic patients presenting with macroadenoma; assay: Human pituitary adenoma cell growth hormone release assay; type: cell-based; conditions: incubated for 18 hours; Growth hormone levels in the medium by AlphaLISA; Figure 5
Procedure: • Figure 1 is a graph showing the Growth hormone suppressing activity of Compound 4 (see Table I hereinbelow for its chemical name and its corresponding structural representation) on pituitary tumor cells of acromegalic patients presenting with macroadenoma. Various concentrations of Compound 4 were added to the medium and the cells were incubated for 18 hours before measurement of Growth hormone levels in the medium using the AlphaLISA Growth Hormone Immunoassay Research kit (PerkinElmer). • Figure 2 is a graph showing the Growth hormone suppressing activity of Compounds 5 , 6, and 7 (see Table I hereinbelow for their chemical name and their corresponding structural representation) on pituitary tumor cells of acromegalic patients presenting with macroadenoma. Various concentrations of Compounds 5, 6, and 7 were added to the medium and the cells were incubated for 18 hours before measurement of Growth hormone levels in the medium using the AlphaLISA Growth Hormone Immunoassay Research kit (PerkinElmer). • Figure 3 is a graph showing the Growth hormone suppressing activity of Compounds 4, 6, 7, 8, and 9 (see Table I hereinbelow for their chemical name and their corresponding structural representation) on pituitary tumor cells of acromegalic patients presenting with macroadenoma. […]

hSSTR2 [5] = target: T6, hSSTR2; assay: Intracellular calcium mobilization assay (FLIPR Calcium 4), hSSTR2; type: cell-based; conditions: receptor not named;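 further: agonist activity measured in cells expressing hSSTR2, seeded in 384-well plates, loaded with Calcium 4 dye, read-out as rise in intracellular calcium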
Procedure: as §5, §6

[6] = CHO-K1 cell membranes, […] [3H]-spiperone, 60 minutes at 25°C, read-out: hDRD2 Ki (nM) ± SEM
[7] = CHO-K1 cell membranes, 0.05 nM [125I-Tyr11]-SRIF-14, 60 minutes at 25°C, read-out: hSSTR1 Ki (nM) ± SEM
[8] = CHO-K1 cell membranes, 0.05 nM [125I-Tyr]-seglitide, 60 minutes at 25°C, read-out: hSSTR2 Ki (nM) ± SEM
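Wherever Emax is given: agonist activity at human DRD2 in DRD2-expressing cells, read as intracellular calcium mobilization with a FLIPR Calcium 4 fluorescent dye.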

T2 sequence (P14416 whole entry): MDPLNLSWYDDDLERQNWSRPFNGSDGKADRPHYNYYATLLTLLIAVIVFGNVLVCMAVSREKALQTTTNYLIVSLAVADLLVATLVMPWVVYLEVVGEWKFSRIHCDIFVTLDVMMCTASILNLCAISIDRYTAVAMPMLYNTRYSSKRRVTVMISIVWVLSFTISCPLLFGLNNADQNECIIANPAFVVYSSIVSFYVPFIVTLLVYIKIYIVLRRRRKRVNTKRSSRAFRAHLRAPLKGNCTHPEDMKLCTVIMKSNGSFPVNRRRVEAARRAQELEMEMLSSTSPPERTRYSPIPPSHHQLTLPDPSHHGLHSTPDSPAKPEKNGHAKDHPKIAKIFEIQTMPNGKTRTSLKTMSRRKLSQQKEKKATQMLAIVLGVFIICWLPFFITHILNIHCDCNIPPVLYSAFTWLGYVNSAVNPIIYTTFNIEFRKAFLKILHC
T3 sequence (P32745 whole entry): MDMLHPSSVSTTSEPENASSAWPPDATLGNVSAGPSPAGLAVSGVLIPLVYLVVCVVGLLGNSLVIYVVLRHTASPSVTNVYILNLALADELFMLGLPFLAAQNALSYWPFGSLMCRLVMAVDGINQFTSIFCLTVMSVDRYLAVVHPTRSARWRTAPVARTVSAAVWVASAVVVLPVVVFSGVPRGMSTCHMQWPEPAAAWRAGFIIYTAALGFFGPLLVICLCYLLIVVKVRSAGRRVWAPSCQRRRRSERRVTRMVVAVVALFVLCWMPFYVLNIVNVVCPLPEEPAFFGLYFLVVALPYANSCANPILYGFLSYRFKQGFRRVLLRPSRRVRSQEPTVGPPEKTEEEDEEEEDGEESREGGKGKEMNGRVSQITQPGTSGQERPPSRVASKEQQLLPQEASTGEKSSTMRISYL
T1 sequence (P31391 whole entry): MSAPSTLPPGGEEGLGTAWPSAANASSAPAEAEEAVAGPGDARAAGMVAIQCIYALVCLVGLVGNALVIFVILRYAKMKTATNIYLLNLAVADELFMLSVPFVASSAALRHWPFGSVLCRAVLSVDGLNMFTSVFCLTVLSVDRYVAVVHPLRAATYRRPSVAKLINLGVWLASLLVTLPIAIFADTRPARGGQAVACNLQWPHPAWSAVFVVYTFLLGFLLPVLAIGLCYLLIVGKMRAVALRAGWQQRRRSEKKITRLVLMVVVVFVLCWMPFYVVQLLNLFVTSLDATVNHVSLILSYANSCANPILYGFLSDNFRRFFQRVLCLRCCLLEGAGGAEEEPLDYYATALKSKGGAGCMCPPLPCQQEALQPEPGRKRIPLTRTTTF
T5 sequence (P35346 whole entry): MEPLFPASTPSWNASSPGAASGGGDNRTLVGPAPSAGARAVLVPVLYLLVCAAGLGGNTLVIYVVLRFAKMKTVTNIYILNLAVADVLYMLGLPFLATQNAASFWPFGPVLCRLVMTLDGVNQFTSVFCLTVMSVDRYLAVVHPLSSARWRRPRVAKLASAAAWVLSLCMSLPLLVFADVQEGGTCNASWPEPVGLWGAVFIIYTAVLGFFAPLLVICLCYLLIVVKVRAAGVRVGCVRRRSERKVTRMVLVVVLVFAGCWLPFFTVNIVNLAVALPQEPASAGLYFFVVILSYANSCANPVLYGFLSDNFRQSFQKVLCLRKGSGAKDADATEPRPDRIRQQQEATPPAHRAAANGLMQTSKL
T4 sequence (P30872 whole entry): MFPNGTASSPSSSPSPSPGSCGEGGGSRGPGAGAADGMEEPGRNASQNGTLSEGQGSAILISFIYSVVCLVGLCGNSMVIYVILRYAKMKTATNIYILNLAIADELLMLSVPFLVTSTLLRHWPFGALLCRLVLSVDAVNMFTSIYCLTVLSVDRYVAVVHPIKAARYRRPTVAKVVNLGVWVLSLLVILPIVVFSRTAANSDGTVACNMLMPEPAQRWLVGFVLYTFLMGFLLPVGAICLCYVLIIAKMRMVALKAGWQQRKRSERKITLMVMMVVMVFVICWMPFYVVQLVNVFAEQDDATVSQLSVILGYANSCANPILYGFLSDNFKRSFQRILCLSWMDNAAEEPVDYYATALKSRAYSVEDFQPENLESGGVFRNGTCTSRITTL
T6 sequence (P30874 whole entry): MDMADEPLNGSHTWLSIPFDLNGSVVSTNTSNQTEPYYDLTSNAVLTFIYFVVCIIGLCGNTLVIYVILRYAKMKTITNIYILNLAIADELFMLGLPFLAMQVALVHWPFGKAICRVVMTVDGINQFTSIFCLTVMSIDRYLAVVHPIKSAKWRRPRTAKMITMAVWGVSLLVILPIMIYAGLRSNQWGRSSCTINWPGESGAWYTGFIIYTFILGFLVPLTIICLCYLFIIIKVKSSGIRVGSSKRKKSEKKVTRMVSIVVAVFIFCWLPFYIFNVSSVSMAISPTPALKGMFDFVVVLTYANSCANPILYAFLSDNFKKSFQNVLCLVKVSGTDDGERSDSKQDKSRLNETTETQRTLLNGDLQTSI

SMILES: CC(=O)N(CCC(=O)NC(CN[C@@H]1CCCCNC(=O)[C@H](Cc2ccc(F)cc2)NC(=O)[C@H]([C@@H](C)O)NC(=O)[C@H](CCCCN)NC(=O)[C@@H](Cc2c[nH]c3ccccc23)NC(=O)[C@H](Cc2ccccc2)NC(=O)[C@H](Cc2ccccc2)NC(=O)[C@H](CCCNC(=N)N)NC1=O)Cc1ccc(O)cc1)C[C@@H]1C[C@@H]2c3cccc4[nH]cc(c34)C[C@H]2N(C)C1 (single isomer, unassigned) [Compound 27, 3-[N-acetyl-N-(D-6-methyl-8β-ergolinylmethyl)]-aminopropionyl-Tyr-psi(CH2NH)-cyclo(DLys-Arg-Phe-Phe-DTrp-Lys-Thr-4FPhe)]
- Ki (hSSTR4): 7.3 ± 1.3 nM
- Emax (hDRD2 [1]): 86.3 ± 8%
- Ki (hSSTR3): 0.9 ± 0.1 nM
- Ki (hDRD2 [2]): 277 ± 55.5 nM
- Ki (hSSTR1): 24.4 ± 12 nM
- Ki (hSSTR5): 0.53 ± 0.1 nM
- Ki (hSSTR2 [3]): 0.32 ± 0.04 nM

SMILES: C[C@@H](O)[C@@H]1NC(=O)[C@H](CCCCN)NC(=O)[C@@H](Cc2c[nH]c3ccccc23)NC(=O)[C@H](Cc2ccncc2)NC(=O)[C@H](Cc2ccccc2)NC(=O)[C@H](CCCNC(=N)N)NC(=O)[C@H](NC[C@H](Cc2ccc(O)cc2)NC(=O)CSC[C@@H]2C[C@@H]3c4cccc5[nH]cc(c45)C[C@H]3N(C)C2)CCCCNC(=O)[C@H](Cc2ccccc2)NC1=O [Compound 4, Dop1-Tyr-psi(CH2NH)-cyclo(DLys-Arg-Phe-4Pal-DTrp-Lys-Thr-Phe)]
- Ki (hSSTR4): 93.5 ± 47.7 nM
- Emax (hDRD2 [1]): 106 ± 2.4%
- Growth hormone suppressing activity compared to the parent somatostatin analogs [4]: enhanced Growth hormone suppressing activity
- Ki (hSSTR3): 10.6 ± 0.5 nM
- improvement in EC50 and/or %Emax over Reference Compound B (hSSTR2 [5]): statistically significant improvement in EC50 and/or %Emax
- Ki (hDRD2 [2]; [6]): 182.5 ± 1.7 nM
- Ki (hSSTR1; [7]): 38.1 ± 12.5 nM
- Ki (hSSTR5): 0.92 ± 0.1 nM
- Ki (hSSTR2 [3]; [8]): 0.12 ± 0.01 nM

SMILES: C[C@@H](O)[C@@H]1NC(=O)[C@H](CCCCN)NC(=O)[C@@H](Cc2c[nH]c3ccccc23)NC(=O)[C@H](Cc2ccccc2)NC(=O)[C@H](Cc2ccccc2)NC(=O)[C@H](CCCNC(=N)N)NC(=O)[C@H](NC[C@H](Cc2ccc(O)cc2)NC(=O)CSC[C@@H]2C[C@@H]3c4cccc5[nH]cc(c45)C[C@H]3N(C)C2)CCCCNC(=O)[C@H](Cc2ccc(F)cc2)NC1=O [Compound 5, Dop1-Tyr-psi(CH2NH)-cyclo(DLys-Arg-Phe-Phe-DTrp-Lys-Thr-4FPhe)]
- Ki (hSSTR4): 25.2 ± 9 nM
- Emax (hDRD2 [1]): 98.7 ± 2.3%
- Growth hormone suppressing activity compared to the parent somatostatin analogs [4]: enhanced Growth hormone suppressing activity
- Ki (hSSTR3): 1.5 ± 0.3 nM
- improvement in EC50 and/or %Emax over Reference Compound B (hSSTR2 [5]): statistically significant improvement in EC50 and/or %Emax
- Ki (hDRD2 [2]; [6]): 28.5 ± 12.8 nM
- Ki (hSSTR1; [7]): 9 ± 0.3 nM
- Ki (hSSTR5): 1.65 ± 0.8 nM
- Ki (hSSTR2 [3]; [8]): 0.34 ± 0.09 nM

SMILES: C[C@@H](O)[C@@H]1NC(=O)[C@H](CCCCN)NC(=O)[C@@H](Cc2c[nH]c3ccccc23)NC(=O)[C@H](Cc2ccncc2)NC(=O)[C@H](Cc2ccccc2)NC(=O)[C@H](CCCNC(=N)N)NC(=O)[C@H](NC[C@H](CCCCNC(=O)CSC[C@@H]2C[C@@H]3c4cccc5[nH]cc(c45)C[C@H]3N(C)C2)NC(=O)CSC[C@@H]2C[C@@H]3c4cccc5[nH]cc(c45)C[C@H]3N(C)C2)CCCCNC(=O)[C@H](Cc2ccc(O)cc2)NC1=O [Compound 8, Dop1-Lys(Dop1)-psi(CH2NH)-cyclo(DLys-Arg-Phe-4Pal-DTrp-Lys-Thr-Tyr)]
- Ki (hSSTR4): 60.7 ± 15.7 nM
- Emax (hDRD2 [1]): 94.7 ± 0.8%
- Ki (hSSTR3): 7.5 ± 0.3 nM
- improvement in %Emax over Reference Compound C (hSSTR2 [5]): statistically significant improvement in %Emax
- Ki (hDRD2 [2]; [6]): 113 ± 35 nM
- Ki (hSSTR1; [7]): 106 ± 7.9 nM
- Ki (hSSTR5): 1.49 ± 0.3 nM
- Ki (hSSTR2 [3]; [8]): 0.21 ± 0.08 nM

SMILES: C[C@@H](O)[C@@H]1NC(=O)[C@H](CCCCN)NC(=O)[C@@H](Cc2c[nH]c3ccccc23)NC(=O)[C@H](Cc2ccncc2)NC(=O)[C@H](Cc2ccccc2)NC(=O)[C@H](CCCNC(=N)N)NC(=O)[C@H](NC[C@H](CCCCNC(=O)CSC[C@@H]2C[C@@H]3c4cccc5[nH]cc(c45)C[C@H]3N(C)C2)NC(=O)CSC[C@@H]2C[C@@H]3c4cccc5[nH]cc(c45)C[C@H]3N(C)C2)CCCCNC(=O)[C@H](Cc2ccccc2)NC1=O [Compound 9, Dop1-Lys(Dop1)-psi(CH2NH)-cyclo(DLys-Arg-Phe-4Pal-DTrp-Lys-Thr-Phe)]
- Ki (hSSTR4): 24 ± 3.6 nM
- Emax (hDRD2 [1]): 92.8 ± 3.8%
- Ki (hSSTR3): 4 ± 0.5 nM
- improvement in %Emax over Reference Compound C (hSSTR2 [5]): statistically significant improvement in %Emax
- Ki (hDRD2 [2]; [6]): 39.2 ± 8.3 nM
- Ki (hSSTR1; [7]): 41.9 ± 21.1 nM
- Ki (hSSTR5): 1.54 ± 0.3 nM
- Ki (hSSTR2 [3]; [8]): 0.13 ± 0.06 nM
